These results are taken from patent US11213518B2, “Ligands of the mu, kappa, and delta opioid receptors” (The Board of Trustees of the Leland Stanford Junior …, priority 2017, dated 2022).

“Also recorded” adds a separate entry of the source. Like-named read-outs stand apart in the source and are kept apart here.

For assay [1], the target named is T1, MOR-1 (Mus musculus, UniProt P42866). Nature of the assay: Screening of MOR-1 binders, single-dose inhibition of 125IBNtxA specific binding. Further details: expressed in transfected cells; host or cells: CHO cells. As to conditions: single dose 10 μM. From the text:
Each panel is a representative experiment that has been independently replicated at least three times.

Assay [2] deals with T1, MOR-1. Nature of the assay: Competition binding against 125I-IBNtxA, MOR-1 CHO membranes. Details: expressed in transfected cells. The following applies: vs 125I-IBNtxA (0.1 nM).
A further assay addresses T2, KOR-1 (Mus musculus, UniProt P33534).
T2 construct: expressed in transfected cells
As to the kind of experiment: Competition binding against 125I-IBNtxA, KOR-1 CHO membranes. As to conditions: vs 125I-IBNtxA (0.1 nM), cloned mouse receptor, ± SEM. As to the method: (§1) FIGS. 7A-7C show competition assays at MOR-1, KOR-1 and DOR-1 against FMP4. Competition studies were performed with FMP4 against ^125I-IBNtxA (0.1 nM) in membranes from CHO cells stably expressing the indicated cloned mouse opioid receptors Each figure is a representative experiment that has been independently replicated at least three times. Error bars represent the SEM of triplicate samples. Error bars that cannot be seen are smaller than the size of the symbol.

A further assay addresses T3, DOR-1 (Mus musculus, UniProt P32300).
T3 construct: expressed in transfected cells
As to the kind of experiment: Competition binding against 125I-IBNtxA, DOR-1 CHO membranes. The following applies: vs 125I-IBNtxA (0.1 nM). As to the method: as §1

For assay [3], the target named is T1, MOR-1. As to the kind of experiment: [35S]-GTPγS assay in MOR-1 expressing CHO cells. The assay is classed as biochemical. The following applies: for Functional character in [35S]GTPγS assay at MOR-1: MOR-1 expressing CHO cells, compared with full agonist DAMGO 100 nM. Details: expressed in transfected cells; host or cells: CHO cells. The source says:
Results are pooled from 3 independent replications and are expressed as mean±SEM.

Where [4] appears, read: cloned mouse receptor, ± SEM, read-out: Binding Data-Ki MOR-1.
Setting [5] is: value in μM, read-out: Binding Data-Ki / affinity MOR-1 (μOR).

Broadly, the inhibition is the share of the control response that was lost under treatment. Read a low inhibition as a weak effect. Molecule `Cc1ccccc1OCCCCCN1CCCCC1` [FMP1, 1-piperidino-5-(o-tolyloxy)pentane] gave an inhibition at 10 µM at MOR-1 [1] not below 30%. Besides, the Ki is 0.841 ± 0.242 µM on MOR-1 [2] (setting [4]); less than 10 µM at MOR-1 [2] (setting [5]); 7.39 ± 2.38 µM at KOR-1; 17.9 ± 7.61 µM on DOR-1 (cloned mouse receptor, ± SEM).

`Cc1ccccc1OCCCCCCc1c(C)n[nH]c1C` [FMP4, 3,5-dimethyl-4-[6-(o-tolyloxy)hexyl]-1H-pyrazole]: the “Antagonism of GTPγS stimulation by 100 nM DAMGO” value on MOR-1 [3] (FMP4 at 30 μM) is recorded as “antagonized the GTPγS stimulation of 100 nM DAMGO”. Besides, the “Functional character in [35S]GTPγS assay at MOR-1” value on MOR-1 [3] is reported as “weak partial agonism; also recorded: partial agonist”; at MOR-1 [3] (listed as FMP 4), “weak MOR-1 partial agonist”. Besides, the “Stimulation of GTPγS binding” value at MOR-1 [3] (doses 1, 10 and 30 μM, ceiling effect, p<0.0001 vs control) is on record as “stimulates GTPγS binding”. At MOR-1 [1], the inhibition at 10 µM was not below 30%. For the same molecule, the Ki on MOR-1 [2] (setting [4]) came to 3.22 ± 0.153 µM; at MOR-1 [2] (setting [5]) it was 3.2 µM; at KOR-1, 2.5 ± 0.523 µM; on DOR-1 (cloned mouse receptor, ± SEM), 8.14 ± 1.4 µM.

Take `COc1cccc(OCCCCCN2CCCCC2)c1` [FMP6]: the Ki at MOR-1 [2] (setting [5]) was more than 30 µM; on KOR-1, 6.94 ± 1.97 µM; at DOR-1 (value in μM) it was more than 30 µM.

In turn, `Cc1ccc(OCCCCCCc2c(C)n[nH]c2C)cc1` [FMP16, 3,5-dimethyl-4-[6-(p-tolyloxy)hexyl]-1H-pyrazole] yielded an inhibition at 10 µM at MOR-1 [1] not below 30%. In addition, the Ki was 1.75 ± 0.492 µM at MOR-1 [2] (setting [4]); less than 10 µM at MOR-1 [2] (setting [5]); 4.92 ± 2.24 µM at KOR-1; 9.06 ± 0.566 µM on DOR-1 (cloned mouse receptor, ± SEM).

Turning to `Cc1cccc(C)c1OCCCCCN1CCN(C)CC1` [FMP21], the Ki is more than 30 µM at MOR-1 [2] (setting [5]), 5.5 ± 4.19 µM at KOR-1 and more than 30 µM at DOR-1 (value in μM).

As to `Cc1ccccc1OCCCCCN1CCOCC1` [FMP30], the Ki worked out at 11.3 ± 2.26 µM at MOR-1 [2] (setting [4]); 6.01 ± 2.16 µM on KOR-1; 12.8 ± 0.856 µM on DOR-1 (cloned mouse receptor, ± SEM).
